From patent US5118665A, “Anti-oxidative and anti-inflammatory metal:peptide complexes and uses thereof” (ProCyte Corporation, priority 1990, dated 1992)
Read-outs that look alike come from different tables or passages of the source.

How the values were obtained:
Format in all cases: biochemical
superoxide anion = assay: Superoxide dismutase mimetic activity, xanthine oxidase/NBT method; details: for IC50: read-out: CONC. FOR 50% INHIB.; for CONC. FOR 50% INHIB.: Table 4, ratio 2:1 (binary) or 1:1:1 (ternary with chelating agent), ug copper(II) added per reaction
Protocol: The reactions contained the following: 100 uM xanthine, 56 uM NBT (nitro blue tetrazolium) 1 unit of catalase, and 50 mM potassium phosphate buffer, pH 7.8. The reaction was initiated by the addition of xanthine oxidase in sufficient quantity to obtain an increase in absorbance at 560 nm of approximately 0.025/min. in a total sample volume of 1.7 ml. The xanthine oxidase was prepared fresh daily and stored on ice until used. All the components of the reaction are added except the xanthine oxidase and the spectrophotometer was adjusted to zero at 560 nm. The reaction was initiated by the addition of the xanthine oxidase. All reagents were obtained from Sigma Chemical Co.
Measurements of the absorbance at 560 nm were taken at 1-2 minute intervals for at least 16 minutes following addition of xanthine oxidase. A control consisted of reactions containing no metal:peptide complex.
All complexes were tested at a 2:1 molar ratio of peptide to metal. It should be noted that the absolute value found in enzymatic assays for SOD mimetic activity varries depending upon the enzyme lot used in the evaluation. Thus, the inclusion of GHL-Cu permits comparisons from experiment to experiment based on a normalized activity relative to GHL-Cu.
In this example, superoxide dismutase was measured by the xanthine oxidase/NBT method as described in Example 13. Each complex was tested relative to GHL-Cu assayed at the same time. All complexes were tested at a 2:1 molar ratio of peptide to metal.
In this example, superoxide dismutase was measured by the xanthine oxidase/NBT method as described in Example 13. Each compound was tested relative to GHL-Cu assayed at the same time. All complexes were tested at a 2:1 molar ratio of peptide to metal.
In this example, superoxide dismutase was measured by the xanthine oxidase/NBT method as described in Example 13. Each compound was tested relative to GHL-Cu or glycyl-L-histidyl-L-lysyl-L-valyl-L-phenylalanyl-valine:copper(II) ("GHLVFV-Cu") assayed at the same time. In this example, the amount of complex for 50% inhibition is expressed as ug copper(II) added per reaction necessary to achieve 50% inhibition of the control reaction.
In this example, superoxide dismutase was measured by the xanthine oxidase/NBT method as described in Example 13. Each compound was tested relative to GHL-Cu assayed at the same time.

ferritin = assay: Inhibition of ferritin iron release (bathophenanthroline disulfonate, A535); details: 10 um complex, peptide:metal 1:1; for RATE INC. A535 nm min: 200 uM ferritin, no addition = 0.0060; for PERCENT INHIBITION: versus reaction with no additions
Protocol: (§1) Iron release from ferritin was measured by incubating ferritin with 10 um of a metal:peptide complexes of the present invention and determining the amount of iron released. Reaction mixtures contained 0.33 mM xanthine, 25 mU/ml xanthine oxidase, and 90 U/ml catalase as described in Example 13. In addition, 200 uM ferritin was added as a source of iron and 150 uM bathophenanthroline disulfonate to chelate and released iron. The release of iron was measured as an increase in the absorption of 535 nm due to the ironbathophenanthroline complex. The data is presented in Table 6 as this absorption rate and as a percent inhibition of a reaction with no additions. All the metal:peptide complexes are at a molar ratio of peptide to metal of 1:1.

[1] = tested on: liposomes prepared from rat liver lipids; assay: Inhibition of ferritin and superoxide anion dependent lipid peroxidation (MDA formation); details: peptide:metal 1:1; for RATE nmole MDA/min/ml: incubations as Example 18, no addition = 0.220 (A), 0.150 (B); for PERCENT INHIBITION: versus reaction with no additions
Protocol: as §1
Lipid peroxidation was measured by determining the oxidation of lipids in liposomes prepared from rat liver lipids. Incubations were as described in Example 18 except that rat liver lipid […] were included. The oxidation was followed by determining the amount of malondialdehyde ("MDA") formed during the reaction. The data is presented in Table 7 as this absorption rate and as a percent inhibition of a reaction with no additions. All the metal:peptide complexes are at a molar ratio of peptide to metal of 1:1.

[2] = Table 2, GHL:Cu of the same experiment = 100, peptide:metal 2:1
[3] = Table 2, peptide:metal 2:1, experiments A-G, each with its own GHL:Cu control
[4] = Table 3, ratio 2:1, copper(II) versus manganese(II), experiments A, B
[5] = Table 3, ratio 2:1, reference of the same experiment = 100
[6] = Table 1, GHL:Cu of the same experiment = 100, peptide:metal 2:1
[7] = Table 1, peptide:metal 2:1, pH 7.8, experiments A-E, each with its own GHL:Cu control
[8] = Table 4 experiment A, GHL:Cu 2:1 = 100
[9] = Table 5, GHL:Cu of the same experiment = 100, ratio 2:1
[10] = Table 5, ratio 2:1, albumin binding moieties, experiments A, B
[11] = Table 4 experiment B, GHLVFV:Cu 2:1 = 100

Lhistidyl-glycyl-L-lysine:copper(II) [HGL:Cu]
RELATIVE to GHL-Cu (superoxide anion; [2]): 22300 | IC50 (superoxide anion; [3]): 0.3 µM | RATE INC. A535 nm min (ferritin): 0.0008 A535 nm min | PERCENT INHIBITION (ferritin): 87% | RATE nmole MDA/min/ml [1]: 0.020 nmole MDA/min/ml | PERCENT INHIBITION [1]: 87%

Lhistidyl-glycyl-L-lysine:manganese(II) [HGL:Mn]
IC50 (superoxide anion; [4]): 2 µM | RELATIVE to GHL-Cu (superoxide anion; [5]): 2000

alanylL-histidyl-L-lysine:copper(II) [AHL:Cu]
RELATIVE to GHL-Cu (superoxide anion; [2]): 563 | IC50 (superoxide anion; [3]): 6 µM

alanylL-histidyl-L-lysine:manganese(II) [AHL:Mn]
IC50 (superoxide anion; [4]): 6 µM | RELATIVE to GHL-Cu (superoxide anion; [5]): 667

glycyl-L-histidyl-L-lysine n-octyl ester:copper(II) [GHL-Octyl Ester:Cu]
RELATIVE to GHL-Cu (superoxide anion; [6]): 810 | IC50 (superoxide anion; [7]): 7 µM | IC50 (superoxide anion; [4]): 11 µM | RELATIVE to GHL-Cu (superoxide anion; [5]): 100 | RATE INC. A535 nm min (ferritin): 0.0012 A535 nm min | PERCENT INHIBITION (ferritin): 80% | RATE nmole MDA/min/ml [1]: 0.060 nmole MDA/min/ml | PERCENT INHIBITION [1]: 73%

glycyl-L-histidyl-L-lysine:copper(II) [GHL:Cu, reference compound]
RELATIVE to GHL-Cu (superoxide anion; [6]): 100 | RELATIVE to GHL-Cu (superoxide anion; [2]): 100 | RELATIVE to GHL-Cu (superoxide anion; [5]): 100 | CONC. FOR 50% INHIB. (superoxide anion): 3.2 ug copper(II) per reaction | RELATIVE to GHL-Cu (superoxide anion; [8]): 100 | RELATIVE to GHL-Cu (superoxide anion; [9]): 100 | RATE INC. A535 nm min (ferritin): 0.0016 A535 nm min | PERCENT INHIBITION (ferritin): 73% | RATE nmole MDA/min/ml [1]: 0.084 nmole MDA/min/ml | PERCENT INHIBITION [1]: 62%

glycylL-(3-benzyl)-histidyl-L-lysine:copper(II) [G(3-Benzyl)HL:Cu]
RELATIVE to GHL-Cu (superoxide anion; [2]): 145 | IC50 (superoxide anion; [3]): 33 µM

glycylL-(3-methyl)-histidyl-L-lysine:copper(II) [G(3-Methyl)HL:Cu]
RELATIVE to GHL-Cu (superoxide anion; [2]): 616 | IC50 (superoxide anion; [3]): 8 µM | RATE INC. A535 nm min (ferritin): 0.0010 A535 nm min | PERCENT INHIBITION (ferritin): 83% | RATE nmole MDA/min/ml [1]: 0.104 nmole MDA/min/ml | PERCENT INHIBITION [1]: 31%

glycylL-(3-methyl)-histidyl-L-lysyl-glycyl-L-tryptophan:copper(II) [G(3-Methyl)HLGW:Cu]
RELATIVE to GHL-Cu (superoxide anion; [9]): 521 | IC50 (superoxide anion; [10]): 11 µM

glycylL-histidyl-L-lysine noctyl amide:copper(II) [GHL-Octyl Amide:Cu]
RELATIVE to GHL-Cu (superoxide anion; [6]): 182 | IC50 (superoxide anion; [7]): 17 µM

glycylL-histidyl-L-lysine noctyl ester:manganese(II) [GHL-Octyl:Mn]
IC50 (superoxide anion; [4]): 2 µM | RELATIVE to GHL-Cu (superoxide anion; [5]): 611

glycylL-histidyl-L-lysine npalmityl ester:copper(II) [GHL-Palmityl Ester:Cu]
RELATIVE to GHL-Cu (superoxide anion; [6]): 231 | IC50 (superoxide anion; [7]): 24 µM

glycylL-histidyl-L-lysine:copper(II):histidine [GHL:Cu:H]
CONC. FOR 50% INHIB. (superoxide anion): 0.2 ug copper(II) per reaction | RELATIVE to GHL-Cu (superoxide anion; [8]): 1600

glycylL-histidyl-L-lysine:copper(II):imidazole [GHL:Cu:Im]
CONC. FOR 50% INHIB. (superoxide anion): 1.3 ug copper(II) per reaction | RELATIVE to GHL-Cu (superoxide anion; [8]): 246

glycylL-histidyl-L-lysyl-L-alanyl-L-phenylalanyl-L-alanine:copper(II) [GHLAFA:Cu]
RELATIVE to GHL-Cu (superoxide anion; [6]): 561 | IC50 (superoxide anion; [7]): 10 µM

glycylL-histidyl-L-lysyl-L-tryptophan:copper(II) [GHLW:Cu]
RELATIVE to GHL-Cu (superoxide anion; [9]): 4700 | IC50 (superoxide anion; [10]): 1 µM

glycylL-histidyl-L-lysyl-L-valyl-L-phenylalanyl-L-valine:copper(II) [GHLVFV:Cu]
RELATIVE to GHL-Cu (superoxide anion; [6]): 229 | IC50 (superoxide anion; [7]): 23 µM | CONC. FOR 50% INHIB. (superoxide anion): 2.8 ug copper(II) per reaction | RELATIVE to GHL-Cu (superoxide anion; [11]): 100 | RATE INC. A535 nm min (ferritin): 0.0011 A535 nm min | PERCENT INHIBITION (ferritin): 82% | RATE nmole MDA/min/ml [1]: 0.140 nmole MDA/min/ml | PERCENT INHIBITION [1]: 36%

glycylL-histidyl-L-lysyl-L-valyl-L-phenylalanyl-L-valine:copper(II):histiine [GHLVFV:Cu:H]
CONC. FOR 50% INHIB. (superoxide anion): 0.2 ug copper(II) per reaction | RELATIVE to GHL-Cu (superoxide anion; [11]): 1400

glycylL-histidyl-L-lysyl-L-valyl-L-phenylalanyl-L-valine:copper(II):imidaole [GHLVFV:Cu:Im]
CONC. FOR 50% INHIB. (superoxide anion): 0.3 ug copper(II) per reaction | RELATIVE to GHL-Cu (superoxide anion; [11]): 930

glycylL-histidyl-cadaverine:copper(II) [GHCadaverine:Cu]
RELATIVE to GHL-Cu (superoxide anion; [2]): 118 | IC50 (superoxide anion; [3]): 17 µM

glycylL-lysyl-L-histidine:copper(II) [GLH:Cu]
RELATIVE to GHL-Cu (superoxide anion; [2]): 75 | IC50 (superoxide anion; [3]): 20 µM

glycylL-lysyl-L-histidine:manganese(II) [GLH:Mn]
IC50 (superoxide anion; [4]): 6 µM | RELATIVE to GHL-Cu (superoxide anion; [5]): 2000

lysylL-histidyl-L-glycine amide:copper(II) [LHG-Amide:Cu]
RELATIVE to GHL-Cu (superoxide anion; [2]): 21 | IC50 (superoxide anion; [3]): 70 µM

lysylL-histidyl-L-glycine noctyl ester:copper(II) [LHG-Octyl Ester:Cu]
RELATIVE to GHL-Cu (superoxide anion; [6]): 60 | IC50 (superoxide anion; [7]): 10 µM

lysylL-histidyl-caprolactam:copper(II) [GHCaprolactam:Cu]
RELATIVE to GHL-Cu (superoxide anion; [2]): 4500 | IC50 (superoxide anion; [3]): 0.8 µM

lysylL-histidyl-glycyl-L-valyl-L-phenylalanyl-L-valine:copper(II) [LHGVFV:Cu]
RELATIVE to GHL-Cu (superoxide anion; [6]): 46 | IC50 (superoxide anion; [7]): 13 µM
